Assay results taken from US20100004234A1, “SPECIFIC KINASE INHIBITORS” (Kosan Biosciences Incorporated, priority 2004, published 2010).

Legend:
Assay in all cases: Kinase panel, residual activity
Assay type in all cases: biochemical
Conditions in all cases: read-out: Percent residual activity
[1] = target: ROCK-II(h) (Homo sapiens, UniProt O75116)
Procedure: (§1) In this panel of 124 kinases, 18 of the 19 kinases identified as having an active site cysteine were inhibited to some extent by hypothemycin at a concentration of 0.2 μM and/or 2 μM.

[2] = target: Rse(h) (Homo sapiens, UniProt Q06418)
Procedure: as §1

[3] = target: PKCθ(h) (Homo sapiens, UniProt Q04759)
Procedure: as §1

[4] = target: Flt3(h) (Homo sapiens, UniProt P36888)
Procedure: as §1

[5] = target: Lyn(h) (Homo sapiens, UniProt P07948)
Procedure: as §1

[6] = target: EGFR(h) (Homo sapiens, UniProt P00533)
Procedure: as §1

[7] = target: EphB2(h) (Homo sapiens, UniProt P29323)
Procedure: as §1

[8] = target: GSK3β(h) (Homo sapiens, UniProt P49841)
Procedure: as §1

[9] = target: cKit(D816V)(h) (Homo sapiens, UniProt P10721, D816V)
Procedure: as §1

[10] = target: TrkB(h) (Homo sapiens, UniProt Q16620)
Procedure: as §1

[11] = target: CDK3/cyclinE(h) (Homo sapiens, UniProt Q00526)
Procedure: as §1

[12] = target: MAPKAP-K3(h) (Homo sapiens, UniProt Q16644)
Procedure: as §1

[13] = target: c-RAF(h) (Homo sapiens, UniProt P04049)
Procedure: as §1

[14] = target: SGK(h) (Homo sapiens, UniProt O00141)
Procedure: as §1

[15] = target: Fes(h) (Homo sapiens, UniProt P07332)
Procedure: as §1

[16] = target: BTK(h) (Homo sapiens, UniProt Q06187)
Procedure: as §1

[17] = target: Rsk2(h) (Homo sapiens, UniProt P51812)
Procedure: as §1

[18] = target: CDK2/cyclinA(h) (Homo sapiens, UniProt P24941)
Procedure: as §1

[19] = target: ROCK-I(h) (Homo sapiens, UniProt Q13464)
Procedure: as §1

[20] = target: PKBβ(h) (Homo sapiens, UniProt P31751)
Procedure: as §1

[21] = target: Pyk2(h) (Homo sapiens, UniProt Q14289)
Procedure: as §1

[22] = target: MAPK2(h) (Homo sapiens, UniProt P28482)
Procedure: as §1

[23] = target: Axl(h) (Homo sapiens, UniProt P30530)
Procedure: as §1

[24] = target: PDK1(h) (Homo sapiens, UniProt O15530)
Procedure: as §1

[25] = target: ErbB4(h) (Homo sapiens, UniProt Q15303)
Procedure: as §1

[26] = target: PKCη(h) (Homo sapiens, UniProt P24723)
Procedure: as §1

[27] = target: Ros(h) (Homo sapiens, UniProt P08922)
Procedure: as §1

[28] = target: cSRC(h) (Homo sapiens, UniProt P12931)
Procedure: as §1

[29] = target: IKKβ(h) (Homo sapiens, UniProt O14920)
Procedure: as §1

[30] = target: Abl(T315I)(h) (Homo sapiens, UniProt P00519, T315I)
Procedure: as §1

[31] = target: Plk3(h) (Homo sapiens, UniProt Q9H4B4)
Procedure: as §1

[32] = target: Hck(h) (Homo sapiens, UniProt P08631)
Procedure: as §1

[33] = target: SAPK2a(h) (Homo sapiens, UniProt Q16539)
Procedure: as §1

[34] = target: CHK2(h) (Homo sapiens, UniProt O96017)
Procedure: as §1

[35] = target: PKCε(h) (Homo sapiens, UniProt Q02156)
Procedure: as §1

[36] = target: IRAK4(h) (Homo sapiens, UniProt Q9NWZ3)
Procedure: as §1

[37] = target: IGF-1R(h) (Homo sapiens, UniProt P08069)
Procedure: as §1

Chain of EGFR(h) (P00533 25-1210): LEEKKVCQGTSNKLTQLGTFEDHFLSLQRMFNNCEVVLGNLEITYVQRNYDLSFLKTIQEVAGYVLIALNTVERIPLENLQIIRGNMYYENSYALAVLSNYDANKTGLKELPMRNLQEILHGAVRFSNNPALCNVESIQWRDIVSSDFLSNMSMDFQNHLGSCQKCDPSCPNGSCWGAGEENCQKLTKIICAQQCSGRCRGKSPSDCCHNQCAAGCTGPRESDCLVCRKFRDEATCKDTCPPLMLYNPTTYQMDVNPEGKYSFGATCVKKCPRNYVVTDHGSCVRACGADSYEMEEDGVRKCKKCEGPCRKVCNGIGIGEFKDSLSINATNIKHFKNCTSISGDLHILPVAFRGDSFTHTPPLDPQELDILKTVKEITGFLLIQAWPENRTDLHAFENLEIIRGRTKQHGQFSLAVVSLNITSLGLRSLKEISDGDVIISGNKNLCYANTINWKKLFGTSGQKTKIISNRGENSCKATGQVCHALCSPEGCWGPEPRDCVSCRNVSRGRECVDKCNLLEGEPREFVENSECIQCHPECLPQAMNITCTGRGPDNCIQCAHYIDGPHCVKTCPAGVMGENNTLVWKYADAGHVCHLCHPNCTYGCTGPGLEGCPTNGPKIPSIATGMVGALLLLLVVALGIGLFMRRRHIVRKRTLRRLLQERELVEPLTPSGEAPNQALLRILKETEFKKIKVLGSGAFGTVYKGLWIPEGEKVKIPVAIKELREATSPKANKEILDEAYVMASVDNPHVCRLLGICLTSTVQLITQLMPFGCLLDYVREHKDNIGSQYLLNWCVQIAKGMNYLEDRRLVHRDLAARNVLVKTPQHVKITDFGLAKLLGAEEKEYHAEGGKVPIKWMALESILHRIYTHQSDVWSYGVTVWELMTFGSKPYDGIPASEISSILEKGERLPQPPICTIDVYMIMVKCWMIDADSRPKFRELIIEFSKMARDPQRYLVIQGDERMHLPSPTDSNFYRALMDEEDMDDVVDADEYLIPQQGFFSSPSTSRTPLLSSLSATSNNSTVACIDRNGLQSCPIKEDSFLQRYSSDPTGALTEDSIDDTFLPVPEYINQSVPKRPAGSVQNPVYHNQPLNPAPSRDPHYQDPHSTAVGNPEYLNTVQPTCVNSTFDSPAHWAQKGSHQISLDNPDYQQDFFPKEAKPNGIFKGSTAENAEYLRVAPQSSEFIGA
Chain of TrkB(h) (Q16620 32-822): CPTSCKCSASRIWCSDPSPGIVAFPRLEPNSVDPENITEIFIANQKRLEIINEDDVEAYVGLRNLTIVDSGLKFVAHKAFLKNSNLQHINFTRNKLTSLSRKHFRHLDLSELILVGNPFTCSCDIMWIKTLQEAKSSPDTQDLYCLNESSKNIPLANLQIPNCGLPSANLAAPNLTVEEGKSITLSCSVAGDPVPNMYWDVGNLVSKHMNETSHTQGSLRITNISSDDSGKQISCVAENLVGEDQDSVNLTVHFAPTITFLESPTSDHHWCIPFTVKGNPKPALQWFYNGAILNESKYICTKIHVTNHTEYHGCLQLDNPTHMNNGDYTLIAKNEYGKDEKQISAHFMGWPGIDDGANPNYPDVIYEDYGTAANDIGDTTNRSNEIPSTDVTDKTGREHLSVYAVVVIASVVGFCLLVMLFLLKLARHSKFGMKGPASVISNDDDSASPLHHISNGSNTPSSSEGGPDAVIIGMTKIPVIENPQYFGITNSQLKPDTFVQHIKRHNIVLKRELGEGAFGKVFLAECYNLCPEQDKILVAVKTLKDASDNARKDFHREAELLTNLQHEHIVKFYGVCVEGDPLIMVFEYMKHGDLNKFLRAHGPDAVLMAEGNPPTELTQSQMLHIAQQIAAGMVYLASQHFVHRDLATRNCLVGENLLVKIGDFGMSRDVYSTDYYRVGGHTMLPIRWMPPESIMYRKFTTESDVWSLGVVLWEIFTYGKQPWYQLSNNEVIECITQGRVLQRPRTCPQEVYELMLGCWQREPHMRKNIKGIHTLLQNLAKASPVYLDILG
Chain of Hck(h) (P08631 whole entry): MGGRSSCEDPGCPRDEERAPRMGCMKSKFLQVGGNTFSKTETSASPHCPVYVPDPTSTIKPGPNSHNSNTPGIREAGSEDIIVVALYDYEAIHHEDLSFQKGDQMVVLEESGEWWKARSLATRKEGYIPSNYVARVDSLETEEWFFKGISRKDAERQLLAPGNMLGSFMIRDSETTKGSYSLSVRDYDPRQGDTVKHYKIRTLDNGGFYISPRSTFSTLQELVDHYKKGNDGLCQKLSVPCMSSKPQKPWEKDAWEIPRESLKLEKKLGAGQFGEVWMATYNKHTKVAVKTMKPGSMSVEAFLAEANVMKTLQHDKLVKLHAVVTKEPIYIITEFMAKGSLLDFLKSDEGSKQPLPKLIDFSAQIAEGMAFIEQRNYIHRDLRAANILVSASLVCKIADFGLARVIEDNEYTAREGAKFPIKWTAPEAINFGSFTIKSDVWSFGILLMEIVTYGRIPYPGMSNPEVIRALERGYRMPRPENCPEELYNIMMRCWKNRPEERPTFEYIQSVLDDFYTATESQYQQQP
Chain of MAPK2(h) (P28482 whole entry): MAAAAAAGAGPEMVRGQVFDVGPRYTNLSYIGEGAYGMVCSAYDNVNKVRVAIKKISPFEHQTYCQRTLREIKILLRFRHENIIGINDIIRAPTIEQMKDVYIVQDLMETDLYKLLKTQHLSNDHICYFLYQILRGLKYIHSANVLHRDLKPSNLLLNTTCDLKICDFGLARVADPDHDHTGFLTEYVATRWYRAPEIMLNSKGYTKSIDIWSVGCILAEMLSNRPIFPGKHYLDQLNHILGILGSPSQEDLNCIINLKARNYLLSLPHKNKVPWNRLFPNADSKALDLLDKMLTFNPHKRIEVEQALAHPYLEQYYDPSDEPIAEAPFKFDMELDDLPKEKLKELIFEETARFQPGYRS
Chain of IKKβ(h) (O14920 whole entry): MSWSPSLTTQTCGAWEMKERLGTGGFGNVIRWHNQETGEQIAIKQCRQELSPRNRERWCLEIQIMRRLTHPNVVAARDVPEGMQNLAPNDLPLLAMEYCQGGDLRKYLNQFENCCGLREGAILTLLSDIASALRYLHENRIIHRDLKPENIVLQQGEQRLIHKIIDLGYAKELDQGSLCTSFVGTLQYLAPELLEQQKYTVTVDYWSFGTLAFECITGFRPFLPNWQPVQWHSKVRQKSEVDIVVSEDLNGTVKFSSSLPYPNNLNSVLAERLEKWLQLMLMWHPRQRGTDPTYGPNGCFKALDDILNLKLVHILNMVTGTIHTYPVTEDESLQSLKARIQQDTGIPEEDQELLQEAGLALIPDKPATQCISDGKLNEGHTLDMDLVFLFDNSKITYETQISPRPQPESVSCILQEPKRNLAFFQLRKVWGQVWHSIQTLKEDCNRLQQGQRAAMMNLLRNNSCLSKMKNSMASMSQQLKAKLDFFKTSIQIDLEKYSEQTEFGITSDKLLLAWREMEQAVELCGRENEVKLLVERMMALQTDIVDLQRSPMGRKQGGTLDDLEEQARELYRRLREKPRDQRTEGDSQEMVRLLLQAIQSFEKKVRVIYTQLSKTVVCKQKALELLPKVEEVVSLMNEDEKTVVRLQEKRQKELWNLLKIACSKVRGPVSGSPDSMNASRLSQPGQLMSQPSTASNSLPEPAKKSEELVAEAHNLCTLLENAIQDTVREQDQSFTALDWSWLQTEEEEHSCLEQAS
Chain of Flt3(h) (P36888 27-993): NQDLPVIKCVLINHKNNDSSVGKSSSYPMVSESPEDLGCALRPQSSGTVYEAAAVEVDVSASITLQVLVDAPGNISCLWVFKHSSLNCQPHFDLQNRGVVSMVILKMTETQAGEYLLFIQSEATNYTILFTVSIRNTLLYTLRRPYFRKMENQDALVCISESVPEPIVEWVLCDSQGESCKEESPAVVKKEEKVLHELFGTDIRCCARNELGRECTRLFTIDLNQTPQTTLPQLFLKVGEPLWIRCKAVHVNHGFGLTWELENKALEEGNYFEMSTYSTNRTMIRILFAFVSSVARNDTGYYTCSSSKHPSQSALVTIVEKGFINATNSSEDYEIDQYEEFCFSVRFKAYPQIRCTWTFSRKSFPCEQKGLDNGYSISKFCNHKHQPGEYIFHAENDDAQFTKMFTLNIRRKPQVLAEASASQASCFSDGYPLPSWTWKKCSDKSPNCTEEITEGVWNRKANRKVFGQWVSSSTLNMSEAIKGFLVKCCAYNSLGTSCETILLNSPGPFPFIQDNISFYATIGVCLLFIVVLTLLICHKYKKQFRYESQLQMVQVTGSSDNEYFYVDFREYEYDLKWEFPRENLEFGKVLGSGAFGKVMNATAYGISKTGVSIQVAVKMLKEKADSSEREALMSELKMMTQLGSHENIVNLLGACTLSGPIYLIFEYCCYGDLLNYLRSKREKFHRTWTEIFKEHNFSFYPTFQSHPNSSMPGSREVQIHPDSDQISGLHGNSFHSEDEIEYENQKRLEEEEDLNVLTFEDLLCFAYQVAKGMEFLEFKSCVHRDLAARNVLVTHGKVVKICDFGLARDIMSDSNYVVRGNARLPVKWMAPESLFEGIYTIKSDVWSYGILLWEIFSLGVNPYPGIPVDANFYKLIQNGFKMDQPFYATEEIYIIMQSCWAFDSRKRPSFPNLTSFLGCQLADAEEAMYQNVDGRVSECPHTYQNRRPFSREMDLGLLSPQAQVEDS
Chain of GSK3β(h) (P49841 whole entry): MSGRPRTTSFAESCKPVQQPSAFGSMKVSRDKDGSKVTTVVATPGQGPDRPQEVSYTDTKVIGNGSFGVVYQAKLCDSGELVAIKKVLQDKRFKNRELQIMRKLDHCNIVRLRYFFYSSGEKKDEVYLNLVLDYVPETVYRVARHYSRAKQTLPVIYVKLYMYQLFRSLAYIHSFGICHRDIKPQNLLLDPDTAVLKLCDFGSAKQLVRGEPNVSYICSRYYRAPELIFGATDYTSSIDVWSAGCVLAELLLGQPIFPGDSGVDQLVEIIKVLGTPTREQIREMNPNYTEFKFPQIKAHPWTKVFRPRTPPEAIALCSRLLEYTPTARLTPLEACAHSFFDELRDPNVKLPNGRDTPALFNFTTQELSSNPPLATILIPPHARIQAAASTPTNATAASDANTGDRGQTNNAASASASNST

SMILES: COc1cc(O)c2c(c1)[C@H]1O[C@@H]1C[C@H](O)[C@H](O)C(=O)/C=C\C[C@H](C)OC2=O [Hypothemycin, hypothemycin]
- remaining activity at 0.2 µM [1]: 104%
- remaining activity at 0.2 µM [2]: 90%
- remaining activity at 0.2 µM [3]: 104%
- remaining activity at 0.2 µM ([4]; 0.2 μM): 6%
- remaining activity at 2 µM ([4]; 2.0 μM): 3%
- remaining activity at 0.2 µM ([5]; 0.2 μM): 82%
- remaining activity at 2 µM ([5]; 2.0 μM): 83%
- remaining activity at 0.2 µM ([6]; 0.2 μM): 106%
- remaining activity at 2 µM ([6]; 2.0 μM): 94%
- remaining activity at 0.2 µM [7]: 118%
- remaining activity at 0.2 µM ([8]; 0.2 μM): 90%
- remaining activity at 2 µM ([8]; 2.0 μM): 40%
- remaining activity at 0.2 µM ([9]; 0.2 μM): 57%
- remaining activity at 2 µM ([9]; 2.0 μM): 0%
- remaining activity at 0.2 µM ([10]; 0.2 μM): 58%
- remaining activity at 2 µM ([10]; 2.0 μM): 18%
- remaining activity at 0.2 µM [11]: 95%
- remaining activity at 0.2 µM [12]: 98%
- remaining activity at 0.2 µM [13]: 103%
- remaining activity at 0.2 µM [14]: 99%
- remaining activity at 0.2 µM [15]: 92%
- remaining activity at 0.2 µM [16]: 104%
- remaining activity at 0.2 µM [17]: 91%
- remaining activity at 0.2 µM ([18]; 0.2 μM): 634%
- remaining activity at 2 µM ([18]; 2.0 μM): 106%
- remaining activity at 0.2 µM [19]: 121%
- remaining activity at 0.2 µM [20]: 91%
- remaining activity at 0.2 µM [21]: 84%
- remaining activity at 0.2 µM ([22]; 0.2 μM): 79%
- remaining activity at 2 µM ([22]; 2.0 μM): 5%
- remaining activity at 0.2 µM [23]: 110%
- remaining activity at 0.2 µM [24]: 93%
- remaining activity at 0.2 µM [25]: 124%
- remaining activity at 0.2 µM [26]: 97%
- remaining activity at 0.2 µM [27]: 97%
- remaining activity at 0.2 µM ([28]; 0.2 μM): 75%
- remaining activity at 2 µM ([28]; 2.0 μM): 49%
- remaining activity at 0.2 µM ([29]; 0.2 μM): 81%
- remaining activity at 2 µM ([29]; 2.0 μM): 94%
- remaining activity at 0.2 µM [30]: 90%
- remaining activity at 0.2 µM [31]: 101%
- remaining activity at 0.2 µM ([32]; 0.2 μM): 78%
- remaining activity at 2 µM ([32]; 2.0 μM): 91%
- remaining activity at 0.2 µM [33]: 107%
- remaining activity at 0.2 µM [34]: 97%
- remaining activity at 0.2 µM [35]: 106%
- remaining activity at 0.2 µM [36]: 84%
- remaining activity at 0.2 µM [37]: 107%
